1 molecule from US20030083469A1, “Allosteric control of nuclear hormone receptors” (The Salk Institute for Biological Studies, priority 1995, published 2003) can be followed below.

For assay [1], the target named is T1, RAR-RXR heterodimers (Homo sapiens, UniProt P10276+P19793).
T1 construct: transient transfection analysis of full-length Nurrl and/or RXR; expressed in transfected cells; host or cells: CV-1
T1 sequence (P10276 1-462): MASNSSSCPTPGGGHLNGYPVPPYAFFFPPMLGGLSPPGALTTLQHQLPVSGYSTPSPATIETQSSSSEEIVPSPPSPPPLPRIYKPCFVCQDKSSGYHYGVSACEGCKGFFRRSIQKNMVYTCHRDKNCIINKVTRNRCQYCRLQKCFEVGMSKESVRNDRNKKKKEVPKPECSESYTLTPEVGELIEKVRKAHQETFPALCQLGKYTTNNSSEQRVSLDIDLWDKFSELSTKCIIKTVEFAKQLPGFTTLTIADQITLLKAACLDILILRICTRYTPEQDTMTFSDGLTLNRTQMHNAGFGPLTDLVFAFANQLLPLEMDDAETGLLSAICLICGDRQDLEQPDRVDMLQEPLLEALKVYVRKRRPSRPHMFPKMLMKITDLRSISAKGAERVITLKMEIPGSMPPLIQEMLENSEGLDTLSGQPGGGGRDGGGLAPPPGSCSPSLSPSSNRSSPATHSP
T1 sequence (P19793 1-462): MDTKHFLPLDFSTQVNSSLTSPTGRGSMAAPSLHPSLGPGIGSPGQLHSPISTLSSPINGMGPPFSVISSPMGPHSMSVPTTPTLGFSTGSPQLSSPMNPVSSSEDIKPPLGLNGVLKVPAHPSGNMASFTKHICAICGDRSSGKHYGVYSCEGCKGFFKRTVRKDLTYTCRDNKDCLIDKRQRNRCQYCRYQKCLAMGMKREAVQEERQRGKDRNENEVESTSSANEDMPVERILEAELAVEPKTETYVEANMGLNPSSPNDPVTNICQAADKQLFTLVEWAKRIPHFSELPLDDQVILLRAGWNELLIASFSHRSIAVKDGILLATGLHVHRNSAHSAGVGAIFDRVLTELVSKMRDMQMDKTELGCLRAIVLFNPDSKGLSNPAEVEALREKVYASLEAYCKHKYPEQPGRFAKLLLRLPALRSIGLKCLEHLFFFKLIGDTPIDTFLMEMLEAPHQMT
The experiment in a line: Transient transfection analysis of RAR-RXR heterodimers (TK-LUC reporter, CV-1 cells). Type of assay: cell-based. How it is done: One day prior to transfection, cells were plated to 50-80% confluence using phenol-red free DMEM-FBS. Cells were transfected by lipofection using N-{2-(2,3)-dioleoyloxy)propyl-N,N,N-trimethyl ammonium methyl sulfate} according to the manufacturer's instructions (DOTAP, Boehringer Mannheim).
In the right panel of FIG. 2, cells were transfected with HRE×1 TK-LUC (300 ng/10^5 cells), CMX-hRARα (50 ng/10^5 cells) CMX-hRXRα (50 ng/10^5 cells) and CMX-βgal (500 ng/10^5 cells) . […] Normalized luciferase activity was determined and plotted as fold-activation relative to untreated cells.

Assay [2] addresses T2, RXR LBD (Homo sapiens, UniProt P19793).
T2 construct: or the human RXRα LBD (Glu 203 -Thr 462); expressed in transfected cells; host or cells: CV-1
T2 sequence (P19793 203-462): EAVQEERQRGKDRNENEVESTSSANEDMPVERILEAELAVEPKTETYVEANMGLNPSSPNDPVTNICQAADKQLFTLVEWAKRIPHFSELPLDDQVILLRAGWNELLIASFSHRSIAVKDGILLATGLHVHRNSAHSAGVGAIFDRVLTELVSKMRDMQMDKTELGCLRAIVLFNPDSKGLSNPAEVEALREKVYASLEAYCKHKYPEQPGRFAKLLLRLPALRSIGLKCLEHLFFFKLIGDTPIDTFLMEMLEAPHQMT
As to the kind of experiment: Transient transfection, RXR LBD expressed alone (UASG x4 TK-LUC). Type of assay: cell-based. As to conditions: 100 nM LG69. The method, then:
CV-1 cells were grown in Dulbecco's Modified Eagle's medium supplemented with 10% resin-charcoal stripped (Samuels et al., Endocrinology 105:80-85 (1979)) fetal bovine serum, 50 U/ml penicillin G and 50 μg/ml streptomycin sulfate (DMEM-FBS) at 37° C. in 5% CO2. One day prior to transfection, cells were plated to 50-80% confluence using phenol-red free DMEM-FBS. Cells were transfected by lipofection using N-{2-(2,3)-dioleoyloxy)propyl-N,N,N-trimethyl ammonium methyl sulfate} according to the manufacturer's instructions (DOTAP, Boehringer Mannheim). […] Cells were harvested and assayed for luciferase and β-galactosidase activity. All points were performed in triplicate in each experiment and varied by less than 10%. Each experiment was repeated three or more times with similar results.
Since RXR serves as a silent partner in the T3R and RAR pathways, it was next investigated whether RXR could serve as an active component in other complexes. To search for such complexes, the LBD of a number of nuclear receptors were fused to the GAL4 DBD, and tested to determine whether the RXR LBD could confer LG69 responsiveness upon these GAL-LBD chimeras. […] Normalized luciferase activity was determined and plotted as fold-activation relative to untreated cells.

Each structure is given as a SMILES string.

`CC=C(c1ccc(C(=O)O)cc1)c1cc2c(cc1C)C(C)(C)CCC2(C)C` [LG69, 4-{1-(3,5,5,8,8-pentamethyl-5,6,7,8-tetrahydro-2-napthalenyl)-1-propenyl}benzoic acid]: the “transcriptional activity with Am580+LG69 over that seen with AM580 alone” value in assay [1] (50 nM Am580+100 nM LG69, full-length receptors) is on record as “increased transcriptional activity”. Besides, the “responsiveness of transfected cells to ligand (luciferase fold-activation)” value in assay [1] (CV-1 cells transfected with RARα and RXRα, 50 nM Am580 or 100 nM LG69) is on record as “unresponsive”. Further, the LG69 responsiveness result in assay [2] was “not seen”.
